Values joined by “and” are separate entries in the source; they are usually repeats but may differ in a detail not shown here. Equal entries are not always repeated.
How the values were obtained:
PAK4 (human) = PAK4 (human) (UniProt O96013)
MAPK8 (human) = MAPK8 (human) (UniProt P45983)
PRKCA (human) = PRKCA (human) (UniProt P17252)
MAP2K1 (human) = MAP2K1 (human) (UniProt Q02750)
CHEK2 (human) = CHEK2 (human) (UniProt O96017)
MAPK14 (human) = MAPK14 (human) (UniProt Q16539)
NEK6 (human) = NEK6 (human) (UniProt Q9HC98)
SRC (human) = SRC (human) (UniProt P12931)
PIM3 (human) = PIM3 (human) (UniProt Q86V86)
EPHB3 (human) = EPHB3 (human) (UniProt P54753)
PIM2 (human) = PIM2 (human) (UniProt Q9P1W9)
PIM2 (human), sequence (Q9P1W9 whole entry, looked up): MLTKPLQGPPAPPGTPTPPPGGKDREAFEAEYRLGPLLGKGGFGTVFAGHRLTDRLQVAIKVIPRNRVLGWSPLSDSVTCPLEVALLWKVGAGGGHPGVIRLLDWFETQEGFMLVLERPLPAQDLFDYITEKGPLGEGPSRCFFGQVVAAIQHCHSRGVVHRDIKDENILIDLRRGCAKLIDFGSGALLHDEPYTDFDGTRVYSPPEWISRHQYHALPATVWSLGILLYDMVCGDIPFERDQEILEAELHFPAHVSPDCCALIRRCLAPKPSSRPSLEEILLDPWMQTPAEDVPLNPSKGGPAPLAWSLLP

RPS6KA1 KD1 KD2 (human) = RPS6KA1 KD1 KD2 (human) (UniProt Q15418)
PHKG1 (human) = PHKG1 (human) (UniProt Q16816)
MKNK2 (human) = MKNK2 (human) (UniProt Q9HBH9)
PRKACA (human) = PRKACA (human) (UniProt P17612)
PRKAA1 or PRKAA2 (rat) = conditions: accession and sequence are those of the human protein
LCK (mouse) = conditions: accession and sequence are those of the human protein
YES1 (human) = YES1 (human) (UniProt P07947)
YES1 (human), sequence (P07947 whole entry, looked up): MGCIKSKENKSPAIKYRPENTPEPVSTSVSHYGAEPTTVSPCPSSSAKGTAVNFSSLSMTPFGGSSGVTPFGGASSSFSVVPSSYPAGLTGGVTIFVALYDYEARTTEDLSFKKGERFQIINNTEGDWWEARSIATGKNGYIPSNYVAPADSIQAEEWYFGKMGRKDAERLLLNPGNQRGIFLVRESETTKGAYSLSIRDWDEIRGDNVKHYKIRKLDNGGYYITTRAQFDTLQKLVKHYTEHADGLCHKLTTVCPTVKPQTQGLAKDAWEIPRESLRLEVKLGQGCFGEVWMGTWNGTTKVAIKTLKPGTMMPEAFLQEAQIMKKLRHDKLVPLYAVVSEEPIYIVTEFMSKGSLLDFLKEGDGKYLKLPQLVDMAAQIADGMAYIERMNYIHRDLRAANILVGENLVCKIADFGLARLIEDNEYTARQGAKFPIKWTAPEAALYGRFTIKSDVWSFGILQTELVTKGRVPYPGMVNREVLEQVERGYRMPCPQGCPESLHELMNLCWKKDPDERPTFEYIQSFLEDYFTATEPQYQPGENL

[1] = system: RPS6KB1 (human), P23443 [T412E]
CHEK1 (human) = CHEK1 (human) (UniProt O14757)
AURKB (human) = AURKB (human) (UniProt Q96GD4)
AURKB (human), sequence (Q96GD4 whole entry, looked up): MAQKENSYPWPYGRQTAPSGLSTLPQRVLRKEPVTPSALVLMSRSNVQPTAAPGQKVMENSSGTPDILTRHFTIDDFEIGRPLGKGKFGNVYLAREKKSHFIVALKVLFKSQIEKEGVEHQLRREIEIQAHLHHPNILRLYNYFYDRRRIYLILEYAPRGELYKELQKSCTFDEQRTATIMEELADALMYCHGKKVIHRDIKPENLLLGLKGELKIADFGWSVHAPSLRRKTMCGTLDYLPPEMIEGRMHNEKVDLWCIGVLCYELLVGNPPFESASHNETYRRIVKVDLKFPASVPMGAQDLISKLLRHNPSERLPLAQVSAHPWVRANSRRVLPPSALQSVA

HIPK2 (human) = HIPK2 (human) (UniProt Q9H2X6)
CSK (human) = CSK (human) (UniProt P41240)
MAPKAPK5 (human) = MAPKAPK5 (human) (UniProt Q8IW41)
DYRK1A (human) = DYRK1A (human) (UniProt Q13627)
PDPK1 (human) = PDPK1 (human) (UniProt O15530)
PDPK1 (human), sequence (O15530 whole entry, looked up): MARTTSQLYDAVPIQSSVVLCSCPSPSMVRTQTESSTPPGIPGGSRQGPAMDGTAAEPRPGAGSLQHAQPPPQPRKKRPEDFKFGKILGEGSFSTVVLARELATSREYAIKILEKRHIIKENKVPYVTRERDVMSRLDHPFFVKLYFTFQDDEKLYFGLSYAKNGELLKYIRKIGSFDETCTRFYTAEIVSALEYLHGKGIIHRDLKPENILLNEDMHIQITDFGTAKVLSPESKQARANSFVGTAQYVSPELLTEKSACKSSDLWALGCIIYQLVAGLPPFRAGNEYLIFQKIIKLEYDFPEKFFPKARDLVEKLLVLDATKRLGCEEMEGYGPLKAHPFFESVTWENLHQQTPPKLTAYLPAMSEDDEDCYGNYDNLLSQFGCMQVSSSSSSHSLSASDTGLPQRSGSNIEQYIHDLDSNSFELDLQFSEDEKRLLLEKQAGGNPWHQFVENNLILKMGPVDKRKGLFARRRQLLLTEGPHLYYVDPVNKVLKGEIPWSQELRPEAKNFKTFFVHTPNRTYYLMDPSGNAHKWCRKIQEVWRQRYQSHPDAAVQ

SRPK1 (human) = SRPK1 (human) (UniProt Q96SB4)
SRPK1 (human), sequence (Q96SB4 whole entry, looked up): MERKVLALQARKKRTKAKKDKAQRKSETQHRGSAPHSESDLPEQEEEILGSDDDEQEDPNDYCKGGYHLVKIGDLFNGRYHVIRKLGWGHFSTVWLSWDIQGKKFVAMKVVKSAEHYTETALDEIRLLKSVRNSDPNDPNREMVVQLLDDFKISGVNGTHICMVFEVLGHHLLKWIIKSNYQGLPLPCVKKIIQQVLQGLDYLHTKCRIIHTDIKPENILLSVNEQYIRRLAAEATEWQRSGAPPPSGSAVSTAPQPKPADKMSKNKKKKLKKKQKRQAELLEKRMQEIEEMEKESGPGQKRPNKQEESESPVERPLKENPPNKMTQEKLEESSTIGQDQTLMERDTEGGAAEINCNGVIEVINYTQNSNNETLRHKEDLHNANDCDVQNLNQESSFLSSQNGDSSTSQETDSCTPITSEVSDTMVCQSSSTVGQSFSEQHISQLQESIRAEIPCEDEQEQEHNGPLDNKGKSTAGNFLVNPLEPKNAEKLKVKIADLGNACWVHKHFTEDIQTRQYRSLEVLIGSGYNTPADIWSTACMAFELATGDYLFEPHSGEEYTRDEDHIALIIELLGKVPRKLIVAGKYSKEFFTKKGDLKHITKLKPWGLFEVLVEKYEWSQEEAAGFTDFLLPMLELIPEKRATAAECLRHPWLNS

MAPK11 (human) = MAPK11 (human) (UniProt Q15759)
MAPK11 (human), sequence (Q15759 whole entry, looked up): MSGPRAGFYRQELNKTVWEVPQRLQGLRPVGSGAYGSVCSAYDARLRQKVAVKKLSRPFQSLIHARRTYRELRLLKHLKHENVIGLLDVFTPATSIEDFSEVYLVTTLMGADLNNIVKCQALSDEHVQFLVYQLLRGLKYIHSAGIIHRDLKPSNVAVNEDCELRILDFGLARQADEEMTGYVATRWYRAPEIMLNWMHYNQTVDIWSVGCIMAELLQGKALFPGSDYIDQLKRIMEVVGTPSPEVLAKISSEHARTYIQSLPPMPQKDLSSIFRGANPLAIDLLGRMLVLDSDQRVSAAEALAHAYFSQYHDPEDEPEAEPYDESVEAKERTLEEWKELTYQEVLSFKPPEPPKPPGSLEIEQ

MAPK3 (human) = MAPK3 (human) (UniProt P27361)
RPS6KA3 KD1 KD2 (human) = RPS6KA3 KD1 KD2 (human) (UniProt P51812)
GSK3B (human) = GSK3B (human) (UniProt P49841)
CaMK1 (human) = CaMK1 (human) (UniProt Q14012)
EEF2K (human) = EEF2K (human) (UniProt O00418)
EEF2K (human), sequence (O00418 whole entry, looked up): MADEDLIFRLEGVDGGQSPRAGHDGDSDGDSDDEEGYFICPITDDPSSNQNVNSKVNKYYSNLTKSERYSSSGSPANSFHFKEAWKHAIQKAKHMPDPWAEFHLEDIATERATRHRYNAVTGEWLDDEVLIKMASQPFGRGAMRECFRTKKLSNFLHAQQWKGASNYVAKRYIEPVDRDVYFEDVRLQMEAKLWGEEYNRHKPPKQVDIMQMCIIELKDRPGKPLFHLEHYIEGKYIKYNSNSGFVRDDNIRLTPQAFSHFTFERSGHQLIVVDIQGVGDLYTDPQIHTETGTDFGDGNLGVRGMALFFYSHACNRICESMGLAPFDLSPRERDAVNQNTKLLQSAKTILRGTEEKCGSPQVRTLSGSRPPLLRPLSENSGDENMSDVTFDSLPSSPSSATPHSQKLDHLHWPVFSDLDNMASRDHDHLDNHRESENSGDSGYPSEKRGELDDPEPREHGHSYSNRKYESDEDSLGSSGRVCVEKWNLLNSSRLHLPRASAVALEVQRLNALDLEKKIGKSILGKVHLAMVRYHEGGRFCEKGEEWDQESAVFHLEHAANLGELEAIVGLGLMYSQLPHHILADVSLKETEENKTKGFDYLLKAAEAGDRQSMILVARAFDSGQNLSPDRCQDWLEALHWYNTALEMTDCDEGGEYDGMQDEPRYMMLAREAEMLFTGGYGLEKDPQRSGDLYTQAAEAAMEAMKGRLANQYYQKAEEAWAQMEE

INSRR (human) = INSRR (human) (UniProt P14616)

PAK4 (human), sequence (O96013 whole entry, looked up): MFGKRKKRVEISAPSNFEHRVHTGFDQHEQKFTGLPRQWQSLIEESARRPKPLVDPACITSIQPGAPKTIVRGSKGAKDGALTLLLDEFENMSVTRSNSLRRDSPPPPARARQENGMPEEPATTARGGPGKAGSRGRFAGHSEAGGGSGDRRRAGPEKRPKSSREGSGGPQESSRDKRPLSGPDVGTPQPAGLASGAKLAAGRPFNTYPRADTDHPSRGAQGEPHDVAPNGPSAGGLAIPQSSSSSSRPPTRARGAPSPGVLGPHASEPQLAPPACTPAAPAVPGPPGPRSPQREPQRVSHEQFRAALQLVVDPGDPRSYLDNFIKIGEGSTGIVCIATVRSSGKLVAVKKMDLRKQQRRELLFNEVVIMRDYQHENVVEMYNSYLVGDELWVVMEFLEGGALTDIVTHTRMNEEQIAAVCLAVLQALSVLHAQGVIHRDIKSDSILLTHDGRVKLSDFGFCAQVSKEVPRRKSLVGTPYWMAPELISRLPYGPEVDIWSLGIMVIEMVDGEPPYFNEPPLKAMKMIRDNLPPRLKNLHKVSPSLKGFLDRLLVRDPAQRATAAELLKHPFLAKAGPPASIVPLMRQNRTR

With COC(=O)Nc1ccc(-c2nc(N3CCOCC3)c3cnn(C4CCN(C(=O)OC)CC4)c3n2)cc1 the per cent of control (PAK4 (human); compound 1.0 µM) was 93%, the per cent of control (PAK4 (human); compound 10.0 µM) was 97% and the per cent of control (MAPK8 (human); compound 1.0 µM) was 93%. For the same molecule, the per cent of control (MAPK8 (human); compound 10.0 µM) was 91%, the per cent of control (PRKCA (human); compound 1.0 µM) was 81% and the per cent of control (PRKCA (human); compound 10.0 µM) was 75%. The per cent of control (MAP2K1 (human); compound 1.0 µM) was 82%, the per cent of control (MAP2K1 (human); compound 10.0 µM) was 79% and the per cent of control (CHEK2 (human); compound 1.0 µM) was 86%. The per cent of control (CHEK2 (human); compound 10.0 µM) was 88%, the per cent of control (MAPK14 (human); compound 1.0 µM) was 97% and the per cent of control (MAPK14 (human); compound 10.0 µM) was 88%. It also gave a per cent of control (NEK6 (human); compound 1.0 µM) of 96%, a per cent of control (NEK6 (human); compound 10.0 µM) of 87% and a per cent of control (SRC (human); compound 1.0 µM) of 90%. It also gave a per cent of control (SRC (human); compound 10.0 µM) of 67%, a per cent of control (PIM3 (human); compound 1.0 µM) of 87% and a per cent of control (PIM3 (human); compound 10.0 µM) of 80%. It also gave a per cent of control (EPHB3 (human); compound 1.0 µM) of 100%, a per cent of control (EPHB3 (human); compound 10.0 µM) of 116% and a per cent of control (PIM2 (human); compound 1.0 µM) of 81%. The per cent of control (PIM2 (human); compound 10.0 µM) was 80%, the per cent of control (RPS6KA1 KD1 KD2 (human); compound 1.0 µM) was 100% and the per cent of control (RPS6KA1 KD1 KD2 (human); compound 10.0 µM) was 102%. The per cent of control (PHKG1 (human); compound 1.0 µM) was 108%, the per cent of control (PHKG1 (human); compound 10.0 µM) was 93% and the per cent of control (MKNK2 (human); compound 1.0 µM) was 115%. For the same molecule, the per cent of control (MKNK2 (human); compound 10.0 µM) was 93%, the per cent of control (PRKACA (human); compound 1.0 µM) was 103% and the per cent of control (PRKACA (human); compound 10.0 µM) was 100%. For the same molecule, the per cent of control (PRKAA1 or PRKAA2 (rat); compound 1.0 µM) was 78%, the per cent of control (PRKAA1 or PRKAA2 (rat); compound 10.0 µM) was 82% and the per cent of control (LCK (mouse); compound 1.0 µM) was 100%. It also gave a per cent of control (LCK (mouse); compound 10.0 µM) of 91%, a per cent of control (YES1 (human); compound 1.0 µM) of 109% and a per cent of control (YES1 (human); compound 10.0 µM) of 113%. It also gave a per cent of control ([1]; compound 1.0 µM) of 94%, a per cent of control ([1]; compound 10.0 µM) of 93% and a per cent of control (CHEK1 (human); compound 1.0 µM) of 96%. For the same molecule, the per cent of control (CHEK1 (human); compound 10.0 µM) was 92%, the per cent of control (AURKB (human); compound 1.0 µM) was 91% and the per cent of control (AURKB (human); compound 10.0 µM) was 100%. For the same molecule, the per cent of control (HIPK2 (human); compound 1.0 µM) was 95%, the per cent of control (HIPK2 (human); compound 10.0 µM) was 94% and the per cent of control (CSK (human); compound 1.0 µM) was 113%. It also gave a per cent of control (CSK (human); compound 10.0 µM) of 106%, a per cent of control (MAPKAPK5 (human); compound 1.0 µM) of 98% and a per cent of control (MAPKAPK5 (human); compound 10.0 µM) of 74%. For the same molecule, the per cent of control (DYRK1A (human); compound 1.0 µM) was 111%, the per cent of control (DYRK1A (human); compound 10.0 µM) was 90% and the per cent of control (PDPK1 (human); compound 1.0 µM) was 98% and 100%. For the same molecule, the per cent of control (PDPK1 (human); compound 10.0 µM) was 80% and 101%, the per cent of control (SRPK1 (human); compound 1.0 µM) was 109% and the per cent of control (SRPK1 (human); compound 10.0 µM) was 102%. It also gave a per cent of control (MAPK11 (human); compound 1.0 µM) of 82%, a per cent of control (MAPK11 (human); compound 10.0 µM) of 81% and a per cent of control (MAPK3 (human); compound 1.0 µM) of 90%. For the same molecule, the per cent of control (MAPK3 (human); compound 10.0 µM) was 97%, the per cent of control (RPS6KA3 KD1 KD2 (human); compound 1.0 µM) was 88% and the per cent of control (RPS6KA3 KD1 KD2 (human); compound 10.0 µM) was 87%. For the same molecule, the per cent of control (GSK3B (human); compound 1.0 µM) was 86%, the per cent of control (GSK3B (human); compound 10.0 µM) was 93% and the per cent of control (CaMK1 (human); compound 1.0 µM) was 97%. For the same molecule, the per cent of control (CaMK1 (human); compound 10.0 µM) was 102%, the per cent of control (EEF2K (human); compound 1.0 µM) was 97% and the per cent of control (EEF2K (human); compound 10.0 µM) was 106%. For the same molecule, the per cent of control (INSRR (human); compound 1.0 µM) was 88% and the per cent of control (INSRR (human); compound 10.0 µM) was 99%.

CCC(=O)N1CCN(c2ccc(-n3c(=O)ccc4cnc5ccc(-c6cnc7ccccc7c6)cc5c43)cc2C(F)(F)F)CC1 gave a per cent of control (PAK4 (human); compound 1.0 µM) of 110%, a per cent of control (PAK4 (human); compound 10.0 µM) of 66% and a per cent of control (MAPK8 (human); compound 1.0 µM) of 98%. The per cent of control (PRKCA (human); compound 1.0 µM) was 83%, the per cent of control (PRKCA (human); compound 10.0 µM) was 68% and the per cent of control (MAP2K1 (human); compound 1.0 µM) was 69%. It also gave a per cent of control (MAP2K1 (human); compound 10.0 µM) of 22%, a per cent of control (CHEK2 (human); compound 1.0 µM) of 90% and a per cent of control (CHEK2 (human); compound 10.0 µM) of 83%. It also gave a per cent of control (MAPK14 (human); compound 1.0 µM) of 95%, a per cent of control (MAPK14 (human); compound 10.0 µM) of 99% and a per cent of control (NEK6 (human); compound 1.0 µM) of 100%. It also gave a per cent of control (SRC (human); compound 1.0 µM) of 60%, a per cent of control (SRC (human); compound 10.0 µM) of 52% and a per cent of control (PIM3 (human); compound 1.0 µM) of 85%. It also gave a per cent of control (PIM3 (human); compound 10.0 µM) of 30%, a per cent of control (EPHB3 (human); compound 1.0 µM) of 115% and a per cent of control (EPHB3 (human); compound 10.0 µM) of 94%. It also gave a per cent of control (PIM2 (human); compound 1.0 µM) of 86%, a per cent of control (PIM2 (human); compound 10.0 µM) of 96% and a per cent of control (RPS6KA1 KD1 KD2 (human); compound 1.0 µM) of 93%. For the same molecule, the per cent of control (RPS6KA1 KD1 KD2 (human); compound 10.0 µM) was 71%, the per cent of control (PHKG1 (human); compound 1.0 µM) was 110% and the per cent of control (PHKG1 (human); compound 10.0 µM) was 99%. For the same molecule, the per cent of control (MKNK2 (human); compound 1.0 µM) was 112%, the per cent of control (MKNK2 (human); compound 10.0 µM) was 96% and the per cent of control (PRKACA (human); compound 1.0 µM) was 106%. For the same molecule, the per cent of control (PRKACA (human); compound 10.0 µM) was 96%, the per cent of control (PRKAA1 or PRKAA2 (rat); compound 1.0 µM) was 78% and the per cent of control (PRKAA1 or PRKAA2 (rat); compound 10.0 µM) was 93%. For the same molecule, the per cent of control (LCK (mouse); compound 1.0 µM) was 93%, the per cent of control (LCK (mouse); compound 10.0 µM) was 78% and the per cent of control (YES1 (human); compound 1.0 µM) was 113%. The per cent of control (YES1 (human); compound 10.0 µM) was 78%, the per cent of control ([1]; compound 1.0 µM) was 97% and the per cent of control ([1]; compound 10.0 µM) was 81%. It also gave a per cent of control (CHEK1 (human); compound 1.0 µM) of 106%, a per cent of control (CHEK1 (human); compound 10.0 µM) of 125% and a per cent of control (AURKB (human); compound 1.0 µM) of 107%. It also gave a per cent of control (AURKB (human); compound 10.0 µM) of 90%, a per cent of control (HIPK2 (human); compound 1.0 µM) of 96% and a per cent of control (HIPK2 (human); compound 10.0 µM) of 88%. It also gave a per cent of control (CSK (human); compound 1.0 µM) of 101%, a per cent of control (CSK (human); compound 10.0 µM) of 83% and a per cent of control (MAPKAPK5 (human); compound 1.0 µM) of 118%. For the same molecule, the per cent of control (MAPKAPK5 (human); compound 10.0 µM) was 49%, the per cent of control (DYRK1A (human); compound 1.0 µM) was 92% and the per cent of control (DYRK1A (human); compound 10.0 µM) was 75%. For the same molecule, the per cent of control (PDPK1 (human); compound 1.0 µM) was 100% and 117%, the per cent of control (PDPK1 (human); compound 10.0 µM) was 98% and 101% and the per cent of control (SRPK1 (human); compound 1.0 µM) was 107%. For the same molecule, the per cent of control (SRPK1 (human); compound 10.0 µM) was 110%, the per cent of control (MAPK11 (human); compound 1.0 µM) was 83% and the per cent of control (MAPK11 (human); compound 10.0 µM) was 78%. The per cent of control (MAPK3 (human); compound 1.0 µM) was 99%, the per cent of control (MAPK3 (human); compound 10.0 µM) was 96% and the per cent of control (RPS6KA3 KD1 KD2 (human); compound 1.0 µM) was 96%. For the same molecule, the per cent of control (RPS6KA3 KD1 KD2 (human); compound 10.0 µM) was 81%, the per cent of control (GSK3B (human); compound 1.0 µM) was 79% and the per cent of control (GSK3B (human); compound 10.0 µM) was 49%. For the same molecule, the per cent of control (CaMK1 (human); compound 1.0 µM) was 104%, the per cent of control (CaMK1 (human); compound 10.0 µM) was 77% and the per cent of control (EEF2K (human); compound 1.0 µM) was 118%. For the same molecule, the per cent of control (EEF2K (human); compound 10.0 µM) was 111% and the per cent of control (INSRR (human); compound 10.0 µM) was 73%.

Reference: the kinase profiling compilation of Christmann-Franck et al. (2016)
